Measured values: patent publication US6855730B2, “3-methylidenyl-2-indolinone modulators of protein kinase” (Sugen, Inc., priority 1998, dated 2005)

Target: T1, 3T3 cell line genetically engineered to express human EGF-R (Homo sapiens, UniProt P00533)
T1 construct: expressed in transfected cells; host or cells: 3T3
Test: EGF-induced BrdU incorporation assay
Format: cell-based
Conditions: read-out: BrdU EGF driven IC50
Description: The cellular/catalytic assays described herein are performed in an ELISA format. The general procedure is as follows: a compound is introduced to cells expressing the test kinase, either naturally or recombinantly, for a selected period of time after which, if the test kinase is a receptor, a ligand known to activate the receptor is added. The cells are lysed and the lysate is transferred to the wells of an ELISA plate previously coated with a specific antibody recognizing the substrate of the enzymatic phosphorylation reaction. Non-substrate components of the cell lysate are washed away and the amount of phosphorylation on the substrate is detected with an antibody specifically recognizing phosphotyrosine compared with control cells that were not contacted with a test compound. The cellular/biologic assays described herein measure the amount of DNA made in response to activation of a test kinase, which is a general measure of a proliferative response. The general procedure for this assay is as follows: a compound is introduced to cells expressing the test kinase, either naturally or recombinantly, for a selected period of time after which, if the test kinase is a receptor, a ligand known to activate the receptor is added. After incubation at least overnight, a DNA labeling reagent such as Bromodeoxyuridine (BrdU) or 3H-thymidine is added. The amount of labeled DNA is detected with either an anti-BrdU antibody or by measuring radioactivity and is compared to control cells not contacted with a test compound. […]
Protocol • (1) Cells are seeded at 8000 cells/well in 10% CS, 2mM Gin in DMEM, in a 96 well plate. Cells are incubated overnight at 37° C. in 5% CO2. • (2) After 24 hours, the cells are washed with PBS, and then are serum starved in serum free medium (0% CS DMEM with 0.1% BSA) for 24 hours. • (3) On day 3, ligand (EGF, 2 nM, prepared in DMEM with 0.1% BSA) and test compounds are added to the cells simultaneously. The negative control wells receive serum free DMEM with 0.1% BSA only, the positive control cells receive the ligand (EGF) but no test compound. Test compounds are prepared in serum free DMEM with ligand in a 96 well plate, and serially diluted for 7 test concentrations. • (4) After 20 hours of ligand activation, diluted BrdU labeling reagent (1:100 in DMEM, 0.1% BSA) is added and the cells are incubated with BrdU (final concentration=10 μM) for 1.5 hours. • (5) After incubation with labeling reagent, the medium is removed by decanting and tapping the inverted plate on a paper towel. FixDenat solution is added (50 μl/well) and the plates are incubated at room temperature for 45 minutes on a plate shaker. • (6) The FixDenat solution is thoroughly removed by decanting and tapping the inverted plate on a paper towel. Milk is added (5% dehydrated milk in PBS, 200 μl/well) as a blocking solution and the plate is incubated for 30 minutes at room temperature on a plate shaker. • (7) The blocking solution is removed by decanting and the wells are washed once with PBS. Anti-BrdU-POD solution (1:100 dilution in PBS, 1% BSA) is added (100 μ/well) and the plate is incubated for 90 minutes at room temperature on a plate shaker. • (8) The antibody conjugate is thoroughly removed by decanting and rinsing the wells 5 times with PBS, and the plate is dried by inverting and tapping on a paper towel. • (9) TMB substrate solution is added (100 μl/well) and incubated for 20 minutes at room temperature on a plate shaker until color development is sufficient for photometric detection. • (10) The absorbance of the samples are measured at 410 nm (in “dual wavelength” mode with a filter reading at 490 nm, as a reference wavelength) on a Dynatech ELISA plate reader.

| SMILES | IC50 [µM] |
| --- | --- |
| Cc1c[nH]c(/C=C2\C(=O)Nc3ccccc32)c1CCC(=O)O [Example 215, 3-[4-Methyl-2-(2-oxo-1,2-dihydroindol-3-ylidenemethyl)-1H-pyrrol-3-yl]-propionic acid] | > 100 |
| Cc1c[nH]c(/C=C2\C(=O)Nc3cccc(C)c32)c1CCC(=O)O [Example 218, 3-[2-(4-Methyl-2-oxo-1,2-dihydroindol-3-ylidenemethyl)-4-methyl-1H-pyrrol-3-yl]-propionic acid] | 43.5 |
| COc1c(C(C)C)cc(/C=C2/C(=O)Nc3ccccc32)cc1C(C)C [Example 1, 3-(3,5-Diisopropyl-4-methoxybenzylidene)-1,3-dihydroindol-2-one] | 6.6 |
| Cc1c[nH]c(/C=C2\C(=O)Nc3ccc(Br)cc32)c1CCC(=O)O [Example 220, 3-[2-(5-Bromo-2-oxo-1,2-dihydroindol-3-ylidenemethyl)-4-methyl-1H-pyrrol-3-yl]-propionic acid] | > 50 |
| Cc1c[nH]c(C=C2C(=O)Nc3cc(Cl)ccc32)c1CCC(=O)O [Example 219, 3-[2-(6-Chloro-2-oxo-1,2-dihydroindol-3-ylidenemethyl)-4-methyl-1H-pyrrol-3-yl]-propionic acid] | > 50 |

Continued, values first:

| IC50 [µM] | SMILES |
| --- | --- |
| > 50 | Cc1c[nH]c(/C=C2\C(=O)Nc3ccc(Cl)cc32)c1CCC(=O)O [Example 216, 3-[2-(5-Chloro-2-oxo-1,2-dihydroindol-3-ylidenemethyl)-4-methyl-1H-pyrrol-3-yl]-propionic acid] |
| > 50 | COc1ccc2c(c1)/C(=C/c1[nH]cc(C)c1CCC(=O)O)C(=O)N2 [Example 222, 3-[2-(5-Methoxy-2-oxo-1,2-dihydroindol-3-ylidenemethyl)-4-methyl-1H-pyrrol-3-yl]-propionic acid] |
| 6.5 | COc1c(C(C)C)cc(/C=C2/C(=O)Nc3ccc(Cl)cc32)cc1C(C)C [Example 2, 5-Chloro-3-(3,5-diisopropyl-4-methoxybenzylidene)-1,3-dihydroindol-2-one] |
| > 50 | COc1ccc2c(c1)NC(=O)/C2=C\c1[nH]cc(C)c1CCC(=O)O [Example 217, 3-[2-(6-Methoxy-2-oxo-1,2-dihydroindol-3-ylidenemethyl)-4-methyl-1H-pyrrol-3-yl]-propionic acid] |
